Laboratory results reported in ChEMBL document CHEMBL1150598, “Decipinin A and decipienolides A and B: new bioactive metabolites from the coprophilous fungus Podospora decipiens” (2002).
Activity calls are given as the source filed them. The calls are words filed in the database; no cut-off is given here.

Legend:
[1] = test system: Candida albicans; experiment: Antimicrobial activity against Candida albicans ATCC 90029 after 4 days by standard disk assay; type: functional, organism-based
[2] = test system: Ascobolus; experiment: Antimicrobial activity against Ascobolus furfuraceus NRRL 6460 after 4 days by standard disk assay; type: functional, organism-based
[3] = test system: Sordaria fimicola; experiment: Antimicrobial activity against Sordaria fimicola NRRL 6459 after 4 days by standard disk assay; type: functional, organism-based
[4] = test system: Bacillus subtilis; experiment: Antimicrobial activity against Bacillus subtilis ATCC 6051 at 200 ug/disk after 4 days by standard disk assay; type: functional; conditions: ATCC 6051, 96 h, read-out: IZ
[5] = test system: Fusarium verticillioides; experiment: Antimicrobial activity against Fusarium verticillioides ATCC 24378 at 250 ug/disk after 4 days by standard disk assay; type: functional; conditions: ATCC 24378, 96 h, read-out: IZ

SMILES	Activity [1]	Activity [2]	Activity [3]	zone of inhibition at 200 µg/disc [4]	zone of inhibition at 250 µg/disc [5]
C=C1C(OC(=O)C(C)(C)C(C)O)CC2CC1C21CO[C@@]2(C[C@H](C)C(=O)O2)C1.C=C1C(OC(=O)C(C)(C)C(C)O)CC2CC1C21CO[C@]2(C[C@H](C)C(=O)O2)C1 (some centres undefined) [DECIPIENOLIDE A AND B]	inactive	inactive	inactive	9 mm	
CCC/C=C/C=C/C=C/C(=O)O[C@@H]1C2=CC(=O)C(C)(OC(C)=O)C(=O)C2=CO[C@]12O[C@H](C)CC[C@@H]2OC(=O)CCC(=O)O (some centres undefined) [DECIPININ A]	inactive	inactive	inactive	9 mm	22 mm
